Experimental data published in patent US12398109B2, “2-amino-2-(1,2,3-triazole-4-yl)propane-1,3-diol derivative of novel compound for directly inhibiting ASM activity, and use thereof” (KYUNGPOOK NATIONAL UNIVERSITY INDUSTRY-ACADEMIC COOPERATION …, priority 2018, dated 2025).
Values belong to the molecule of their own block, whether it stands above or below them.

Assays:
S1P = S1P level in fibroblasts; details: normal or Alzheimer's patient fibroblasts, 10 μM
Method: (§2) Human fibroblast lines (normal and PS1) were obtained from Coriell Institute and cultured in a DMEM containing 15% FBS at 37° C. and 5% CO2 and used.
(§3) To measure a concentration level of Sphk, 3 μl of the fibroblast sample was mixed with a Sphk activity buffer and stored at 37° C. Subsequently, 54 μl of ethanol was added and the mixture was centrifuged after terminating a hydrolysis reaction. After 30 μl of a supernatant was transferred to a glass vial, 5 μl of the supernatant was applied to a UPLC system. Each Sphk concentration level was quantified using a UPLC system by comparing the Sphk concentration level with NBD bound to sphingosine and S1P. For extraction and quantification of Ceramide and S1P, lipids were extracted from the samples by a known method, and the dried lipid extract was resuspended in 25 μl of 0.2% Igepal CA-630 (Sigma-Aldrich), and the concentration levels of Ceramide and S1P were quantified using the UPLC system.

Sphk = Sphk activity in fibroblasts; details: normal or Alzheimer's patient fibroblasts, 10 μM
Method: as §2, §3

S1P receptor 1 (S1PR1) = assay: S1PR1 expression in fibroblasts (Western blot); details: normal or Alzheimer's patient fibroblasts, 10 μM
Method: Human fibroblast lines (normal and PS1) were obtained from Coriell Institute and cultured in a DMEM containing 15% FBS at 37° C. and 5% CO2 and used. Thereafter, the cell lines were treated with 10 μM of each of the synthesized ASM inhibitory compounds and FTY720 (Cayman), and then changes in ASM activity, Ceramide, S1P, and S1PR1 were measured.
Protein expression of S1PR1 was analyzed using Western blotting. First, antibodies against S1PR1 (abcam) and β-actin (Santa Cruz) were used, and densitometric quantification was performed using ImageJ software (US National Institutes of Health).

[1] = Brain distribution after oral administration in normal mice; assay type: in vivo, mouse; details: oral 10 mg/kg
[2] = Stability in mouse liver microsomes; assay type: in vitro ADME
[3] = Stability in human liver microsomes; assay type: in vitro ADME
[4] = Pharmacokinetic test in blood after oral or intravenous administration in normal mice; details: mouse, 10 mg/kg
amyloid-β deposition = assay: Amyloid-β deposition in medulla and hippocampus of APP/PS1 mouse (ThioS, Aβ40, Aβ42 staining); assay type: in vivo; details: 100 mg/kg/day
Method: In order to confirm whether the inhibition of ASM activity by administration of the ASM inhibitory compounds has an effect on Alzheimer's lesions, first, the medulla and hippocampus regions of the mouse were stained with Thioflavin S (ThioS) according to a known method to confirm protofibril amyloid-β deposition. In addition, immunofluorescence staining of Aβ40 and Aβ42 was performed to confirm the amyloid-β deposition.

APP/PS1 mouse [5] = assay: Morris Water Maze test in APP/PS1 mouse; assay type: in vivo; details: compared to SCNPA101 or FTY720
Method: (§1) In order to confirm a potential effect on learning and memory, a Morris Water Maze (MWM) test was performed. In the MWM, the mouse learned a task 4 times a day for 10 days, a platform was removed on day 11, and aprobe trial was performed. To evaluate activity and anxiety, an open field test and a dark and light test were performed. In the open field test, the mouse was placed in a quadrangular box for 10 minutes and then overall activity and a time spent to move around a wall side and a center were measured. In the dark and light test, the mouse was placed in a quadrangular box consisting of a dark box and a light box for 10 minutes, and a time staying in each box, the number of reciprocating the boxes, and a time to first enter into a light box were measured.

TNF-a, IL-1b, IL-6 = assay: mRNA expression of inflammatory cytokines in brain of APP/PS1 mouse (real-time quantitative PCR); assay type: in vivo; details: SCNPA 100 mg/kg/day, FTY720 1 mg/kg/day
Method: A real-time quantitative PCR method was used to measure the expression levels of inflammatory response-related cytokines (TNF-α, IL-1b, and IL-6). Total RNA was extracted from the brain tissue using an RNeasy Plus mini kit (Qiagen, Korea, Ltd), and cDNA was synthesized from 5 μg of total RNA using a kit from Clontech Co., Ltd. (Mountain View, CA). In addition, by using a Corbett research RG-6000 real-time PCR instrument, real-time quantitative PCR was performed by setting 95° C., 10 min; 95° C., 10 sec; 58° C., 15 sec; 72° C., 20 sec as one cycle and repeating 40 cycles.

APP/PS1 mouse [6] = assay: Open field test and dark & light test in APP/PS1 mouse; assay type: in vivo; details: SCNPA 100 mg/kg/day, FTY720 1 mg/kg/day
Method: as §1

in vivo = details: mouse, po, 10 mg/kg
astrocytes (GFAP) = assay: Astrocytes (GFAP) in brain of APP/PS1 mouse; details: SCNPA 100 mg/kg/day, FTY720 1 mg/kg/day

SMILES: CCCCCCCCc1ccc(CCC(N)(CO)CO)cc1 [FTY720]
expression of S1P (S1P): reduced
Sphk activity (Sphk): reduced
expression of S1PR1 (S1P receptor 1 (S1PR1)): reduced

brain distribution values [1]: 1.41
remaining amount after 30 minutes [2]: 98.21%
metabolic stability (in words) [3]: high metabolic stability
bioavailability [4]: 72.3%
SMILES: CCCCCCn1cc(C(N)(CO)CO)nn1 [SCNPA501, 2-amino-2-(1-hexyl-1H-1,2,3-triazol-4-yl)propane-1,3-diol]

brain distribution values [1]: 3.64
remaining amount after 30 minutes [2]: 95.66%
metabolic stability (in words) [3]: high metabolic stability
bioavailability [4]: 50.3%
SMILES: CCCCCCCCCn1cc(C(N)(CO)CO)nn1 [SCNPA201, 2-amino-2-(1-nonanyl-1H-1,2,3-triazol-4-yl)propane-1,3-diol]
Aβ40 deposition (amyloid-β deposition): lowest
Aβ42 deposition (amyloid-β deposition): lowest
protofibril Aβ deposition (Thioflavin S) (amyloid-β deposition): lowest
effect of improving cognition (APP/PS1 mouse [5]): more remarkable
gene expression of inflammatory cytokines TNF-a, IL-1b, and IL-6 (TNF-a, IL-1b, IL-6): restored to a normal level

Kp ([1]; mouse, brain): 3.61
remaining amount after 30 minutes [2]: 86.36%
remaining amount after 30 minutes [3]: 7.8%
bioavailability (in vivo): 19.6%
SMILES: CCCCCCCCCCCCn1cc(C(N)(CO)CO)nn1 [SCNPA101, 2-amino-2-(1-dodecyl-1H-1,2,3-triazol-4-yl)propane-1,3-diol, reference compound]
activity and anxiety (APP/PS1 mouse [6]): improved
gene expression of inflammatory cytokines TNF-a, IL-1b, and IL-6 (TNF-a, IL-1b, IL-6): restored to a normal level
activity of astrocytes (astrocytes (GFAP)): significantly decreased
